In experiment [1] the test system is C. elegans. Put plainly: Lifespan assay (Automated Lifespan Machine). The format is in vivo. The source says: N2 (Bristol) wild type strain has been used in this application.
To prevent chemical modification or metabolism of the test article by the food bacteria, worms were fed on a lawn of UV-killed bacteria (UV-i bacteria). An overnight culture of E. coli strain WP-2 was pelleted, washed, filtered, and irradiated. A suspension of UV-i bacteria was spotted on NGM agar containing Streptomycin to inhibit the growth of contaminating bacteria. The quantity and distribution of food bacteria were calibrated to ensure adequate access to food for the duration of assay while maintaining visibility of the worms.
The ALM used herein is based on the Caenorhabditis elegans lifespan machine published by Stroustrup et. al (Stroustrup, N. et al. The Caenorhabditis elegans Lifespan Machine. Nat Methods 10, 665-670 (2013)), with proprietary modifications to improve temperature stability and image acquisition. The scanner unit consists of a modified EPSON V850 and images are processed and analyzed using the ALM software (see id.). The machine time-of-death calls are trained and validated using the “storyboarding” feature of the ALM software.
The lifespan assay was designed and performed according to published and validated methods (Amrit, F. R. G., Ratnappan, R., Keith, S. A. & Ghazi, A. The C. elegans lifespan assay toolkit. Methods 68, 465-475 (2014)), using a modified version of the Automated Lifespan Machine (Stroustrup, N. et al. The Caenorhabditis elegans Lifespan Machine. Nat Methods 10, 665-670 (2013)). Worms were age synchronized by bleaching and eggs were plated directly onto NGM agar seeded with UV-i bacteria (Day 1, hatch). On Day 3, when the worms had reached the late L4 stage, they were transferred to dishes containing 100 μM 5-Fluorodeoxyuridine (FUdR) to suppress progeny. On day 5, the worms were washed off the dishes, and 30-50 worms were plated on each scanner dish. Plates were immobilized inverted on the bed of an Automated Lifespan Machine which scanned two images per hour of the plates continuously for the next 40 days.
Time of death calls exported from the ALM software was analyzed and plotted using the Lifelines software package developed by Cam Davidson-Pilon et. al (Lifelines Version: v0.25.9). Additional analysis performed using the OASIS2 analysis software (Seong Kyu Han et. al. OASIS 2: online application for survival analysis 2 with features for the analysis of maximal lifespan and healthspan in aging research. Oncotarget. 7:56147-56152. (2016)).
The lifespan assay was initiated by expanding all replicate groups to more than 1000 worms, then synchronizing by bleaching and allowing larval worms to hatch and arrest. To eliminate the effect of bacterial metabolism and growth on lifespan of C. elegans (wild type, and not over express β-amyloid peptide) worms, synchronized worms were only exposed to dead food bacteria. To suppress progeny, worms were transferred to media containing 5-Fluorodeoxyuridine (FUdR) within 54-60 hours post-plating. Worms were inspected 24 and 48 hours after this transfer to confirm infertility. Finally, the worms were inspected for general health and morphology before transferring to scanner plates. The scanner plates were incubated for an additional 2 days and inspected again before loading onto scanners.
To obtain high-resolution lifespan data and eliminate confounding factors such as worm handling and operator bias, lifespan data was collected using an Automated Lifespan Machine (ALM) (Stroustrup, N. et al. The Caenorhabditis elegans Lifespan Machine. Nat Methods 10, 665-670 (2013)). Three biological replicates, derived from synchronizing three independently maintained lines of N2 worms, were distributed across instruments. Images of the worms were then collected for the next 35 days with no interruption or manipulations. Some plates were excluded after quality checks, but plate number and worm count for all replicates exceeded the threshold for statistical significance (Table 1, row 1).

Experiment [2] has as its system C. elegans. In words: Movement and healthspan analysis (worm activity, morphology, circularity). The following applies: 0.1 mM. The format is in vivo. An excerpt: Worm movement was tracked from the images acquired by the ALM during the lifespan assay. Worm size and movement features were extracted and analyzed using custom software.
To measure healthspan, active worms were identified using the ALM scanner images from the lifespan assay (see Example 2). The worms' spatial location on the plate and their morphology were quantified throughout their lifespan to assess healthspan.
Worm Activity serves as a proxy for animal health. Changes in spatial distribution of the worms between time points is used to derive aggregate movement for the population over time. Worm Activity is described by two complementary measurements of aggregate movement, Centroid Distance and Spatial Distribution: • Centroid Distance calculates a geometric center for each individual worm, and then measures the minimum collective distance that a group of worms moved between time points. It achieves measurement of the changes in spatial distribution between time-points. • Spatial Distribution uses changes in worm contours between time points to measure the changes in the spatial distribution of the worms' bodies. The normalized distribution of these distances in the population provides a measure of how much the group of worms altered their positions and posture on the plate between two time-points.
For both of these Activity metrics, a plot with higher numbers indicates good health, and all measures are normalized to fall between 0 and 1.
Worm morphology is measured from the worm contours detected in the images. In the process of aging, worms become shorter and stouter over time and their shape is an indicator of their overall health and biological age. The Length is calculated from the central spline fitted to the worm contour and Width is measured from each worm's widest point. The worms' posture also changes with age as they lose the ability to maintain an elongated position. Average Circularity measures how close the shape and posture come to being enclosed by a circle.
Each of these measures are obtained by averaging data for all active worms detected on a plate, then averaging across different replicate plates of the same condition. All measurements are based on worms that are still alive and moving at the time of quantification. All measures start when worms are placed on the scanner at day 3 of adulthood.
Average Circularity. The Average Circularity Assay indicates worm heath by describing how closely the shape and posture of the worms is enclosed within a circle. Healthy, active worms maintain an elongated, albeit sinusoidal posture. As unhealthy and aged worms lose muscle function, they increasingly adopt a curled, bunched, or folded state in addition to a stout and wrinkled morphology.

“Also recorded” adds a separate entry of the source.

For the compound `Oc1ccc(C=Cc2cc(O)cc(O)c2)cc1` [Resveratrol, reference compound], in experiment [1] (0.1 mM), the “Age in days at 25% mortality” value is recorded as 21.46 days, the “Age in days at 50% mortality” value is given as 27.29 days, the “Age in days at 75% mortality” value is 31.13 days and the “Age in days at 90% mortality” value came to 35.89 days. The “Age in days at 100% mortality” value in experiment [1] (0.1 mM) is given as 40.85 days. In addition, in experiment [1] (0.1 mM positive control), the “Lifespan / survival relative to vehicle control (in words)” value is “significant positive increase in lifespan; also recorded: higher survival than the vehicle control at all timepoints”. Moreover, the Maximum lifespan in experiment [1] (0.1 mM, 95th percentile of lifespans) was determined as 37.3 days. The compound also registered a Median lifespan in experiment [1] (0.1 mM, N2 wild type, day 0 = day 1 of adulthood) of 27.3 days. The compound further yielded a Mean lifespan in experiment [1] (0.1 mM, area under survival curve) of 26.3 days. Moreover, in experiment [2] (late life), the “Average circularity / posture (FIG. 7)” value is on record as “maintained a more elongated posture well into late life”. In experiment [2] (over the duration of lifespan), the “Aggregate movement (Centroid Distance and Spatial Distribution, FIGS. 5A-5B)” value is on record as “more vigorous movement”. Further, the “Worm morphology (size, FIGS. 6A-6C)” value in experiment [2] (over the lifespan) is “slightly smaller earlier in the assay but remained larger in the late life stages”.

The record behind these values is patent publication US12485110B2, “Use of ergothioneine for extending lifespan or improving healthspan” (NANJING NUTRABUILDING BIO-TECH CO., LTD., priority 2022, dated 2025).
